Data set [1] deals with Klebsiella pneumoniae 39. Put plainly: Protecting effect against experimental infections in mice. In kind it is in vivo. The following applies: Klebsiella pneumoniae, 39, sc, 96 h; ICR mice, i.p. challenge 8 × 10^6 cells/mouse, s.c. one hour after challenge, survival after four days. As for the experimental part: (§1) Male ICR strain mice aged 4 weeks, each weighing 18.5-21.5 g. were used in groups of 10 mice. The test bacteria were cultured overnight at 37° C. on Trypticase-soy agar and then suspended in 5% mucin to obtain the suspension corresponding to each challenge cells. Mice were inoculated intraperitoneally with 0.5 ml. of the suspension. A solution of test compound was given subcutaneously to the mice in various dosage one hour after the challenge. The ED50 values were calculated from the number of surviving mice for each dosage after four days of observation.

The test system of data set [2] is Proteus rettgeri 24. The description is as above. In kind it is in vivo. The following applies: Providencia rettgeri, 24, sc, 96 h; ICR mice, i.p. challenge 9.9 × 10^6 cells/mouse, s.c. one hour after challenge, survival after four days. How it is done: as §1
The test system of data set [3] is Escherichia coli 54. The description is as above. As to conditions: Escherichia coli, 54, sc, 96 h; ICR mice, i.p. challenge 1.1 × 10^7 cells/mouse, s.c. one hour after challenge, survival after four days. In kind it is in vivo. As for the experimental part:
as §1

Data set [4] has as its system Serratia Marcescens 58. The description is as above. In kind it is in vivo. As to conditions: sc, 96 h, ICR mice, i.p. challenge 1.2 × 10^7 cells/mouse, s.c. two divisional doses at 1 hr. and 3 hrs. after infection. How it is done:
as §1
^*3 treated with two divisional doses at 1 hr. and 3 hrs. after […]

Data set [5] deals with Klebsiella pneumoniae 39. Put plainly: MIC against the infecting strain. In kind it is cell-based. As to conditions: Klebsiella pneumoniae, 39, 20 h. As for the experimental part:
(§2) In vitro antibacterial activity was determined by the two-fold agar-plate dilution method as described below.
(§3) One loopful of the 100-fold dilution of an overnight culture of each test strain in Trypticase-soy broth was streaked on heart infusion agar (HI-agar) containing graded concentrations of the test compound and incubated at 37° C. for 20 hours. The minimal inhibitory concentration (MIC) was expressed in μg/ml.
(§4) ^*2 100fold dilution of the overnight

The test system of data set [6] is Proteus rettgeri 24. Put plainly: MIC against the infecting strain. In kind it is cell-based. The following applies: Providencia rettgeri, 24, 20 h. As for the experimental part:
as §2, §3, §4

Data set [7] deals with Escherichia coli 54. Put plainly: MIC against the infecting strain. In kind it is cell-based. The following applies: Escherichia coli, 54, 20 h. How it is done: as §2, §3, §4
The test system of data set [8] is Serratia Marcescens 58. Put plainly: MIC against the infecting strain. As to conditions: 20 h. It counts as cell-based. As for the experimental part:
as §2, §3, §4

Another data set deals with Klebsiella pneumoniae 20. Put plainly: In vitro antibacterial activity, two-fold agar-plate dilution method. It counts as cell-based. As to conditions: HI-agar, 37° C., 20 hours, 100-fold diluted overnight culture. How it is done: (§5) In vitro antibacterial activity was determined by the two-fold agar-plate dilution method as described below. One loopful of the 100-fold dilution of an overnight culture of each test strain in Trypticase-soy broth was streaked on heart infusion agar (HI-agar) containing graded concentrations of the test compound and incubated at 37° C. for 20 hours. The minimal inhibitory concentration (MIC) was expressed in μg/ml.

Data set [9] has as its system Proteus vulgaris IAM-1025. The data set is described as above. In kind it is cell-based. As to conditions: IAM1025, HI-agar, 37° C., 20 hours, 100-fold diluted overnight culture. How it is done: as §5
In data set [10] the test system is Pseudomonus aeruginosa NCTC-10490. Described as above. It counts as cell-based. The following applies: HI-agar, 37° C., 20 hours, 100-fold diluted overnight culture. As for the experimental part: as §5
For data set [11], the system named is Escherichia coli. NIHJ JC-2. The data set is described as above. It counts as cell-based. As to conditions: NIHJJC2, HI-agar, 37° C., 20 hours, 100-fold diluted overnight culture. How it is done: as §5
A further data set relates to Serratia marcescens 35. The data set is described as above. It counts as cell-based. The following applies: HI-agar, 37° C., 20 hours, 100-fold diluted overnight culture. How it is done:
as §5

The test system of a further data set is Proteus mirabilis 18. The description is as above. As to conditions: HI-agar, 37° C., 20 hours, 100-fold diluted overnight culture. In kind it is cell-based. As for the experimental part: as §5
The subject of data set [12] is Staphylococcus aureus 209P JC-1. The description is as above. It counts as cell-based. The following applies: HI-agar, 37° C., 20 hours, 100-fold diluted overnight culture. How it is done:
as §5

Another data set can be described thus: Acute toxicity in rats. On the set-up: species or system rat (ICL-SD strain). The following applies: rat, in vivo, 7 days observation. How it is done: Ten male and 10 female rats aged 6 weeks (ICL-SD strain) were used per group. Test compound dissolved in distilled water was given subcutaneously and intravenously to the animals. […] The LD50 values were calculated from the number of dead animals by the Litchfield-Wilcoxon method.

Setting [13] is: inoculum size 10^0 (overnight culture).
Where [14] appears, read: inoculum size 10^-2 (100fold dilution of the overnight culture).
The mark [15] stands for this setting: inoculum size 10^0 (overnight culture), read-out: MIC.

Consider two molecules from patent publication US4298529A, “Alkoxyimino dioxy butyric acid derivatives” (Fujisawa Pharmaceutical Co., Ltd., priority 1978, dated 1981).

Values after ≈ are worked out from the molar mass of the structure shown. Read-outs that look alike come from different tables or passages of the source.

Regarding `CO/N=C(\C(=O)NC1C(=O)N2C(C(=O)O)=C(COC(C)=O)CSC12)c1csc(N)n1` (stereo not drawn) [Reference, 7[2(2-Amino-4-thiazolyl)-2-methoxyiminoacetamido] cephalospolanic acid (syn isomer), reference compound], the ED50 with Klebsiella pneumoniae 39 [1] amounted to 0.995 mg/kg; with Proteus rettgeri 24 [2] it was 1.17 mg/kg; in the data set on Escherichia coli 54 [3], 2.8 mg/kg; with Serratia Marcescens 58 [4] it was 31.4 mg/kg. Moreover, the MIC with Klebsiella pneumoniae 39 [5] (setting [13]) was found to be 3.13 µg/mL (≈ 6.87 µM); against Klebsiella pneumoniae 39 [5] (setting [14]), 0.05 µg/mL (≈ 0.11 µM); in the data set with Proteus rettgeri 24 [6] (setting [13]) it was 50 µg/mL (≈ 110 µM); with Proteus rettgeri 24 [6] (setting [14]), 0.1 µg/mL (≈ 0.22 µM); in the data set on Escherichia coli 54 [7] (setting [13]), 3.13 µg/mL (≈ 6.87 µM); in the data set on Escherichia coli 54 [7] (setting [14]) it was 0.1 µg/mL (≈ 0.22 µM). The figures for the MIC in the data set with Serratia Marcescens 58 [8] and in the data set on Serratia Marcescens 58 [8] (setting [15]) were 1.56 µg/mL (≈ 3.43 µM) and 50 µg/mL (≈ 110 µM), respectively.

Turning to `CO/N=C(\C(=O)NC1C(=O)N2C(C(=O)O)=CCSC12)c1csc(N)n1` (stereo not drawn) [Compound 1, 7-[2-(2-aminothiazol-4-yl)-2-methoxyiminoacetamido]-3-cephem-4-carboxylic acid (syn isomer)], the median effective dose (ED50) with Klebsiella pneumoniae 39 [1] is less than 0.98 mg/kg; in the data set with Proteus rettgeri 24 [2], 0.39 mg/kg; with Escherichia coli 54 [3], 0.95 mg/kg; with Serratia Marcescens 58 [4], 3.56 mg/kg. The minimum inhibitory concentration (MIC) is not above 0.025 µg/mL in the data set with Klebsiella pneumoniae 20; not above 0.025 µg/mL in data set [9]; 0.39 µg/mL (≈ 1.02 µM) in [10]; not above 0.025 µg/mL in data set [11]; 1.56 µg/mL (≈ 4.07 µM) against Serratia marcescens 35; not above 0.025 µg/mL in the data set on Proteus mirabilis 18. The MIC in [12] is 6.25 µg/mL (≈ 16.3 µM); with Klebsiella pneumoniae 39 [5] (setting [13]), 0.39 µg/mL (≈ 1.02 µM); in the data set on Klebsiella pneumoniae 39 [5] (setting [14]), not above 0.025 µg/mL; against Proteus rettgeri 24 [6] (setting [13]), 1.56 µg/mL (≈ 4.07 µM); against Proteus rettgeri 24 [6] (setting [14]), not above 0.025 µg/mL; against Escherichia coli 54 [7] (setting [13]) it was 0.78 µg/mL (≈ 2.03 µM). In addition, the MIC with Escherichia coli 54 [7] (setting [14]) stood at 0.05 µg/mL (≈ 0.13 µM); in the data set with Serratia Marcescens 58 [8] (setting [15]), 25 µg/mL (≈ 65.2 µM); in the data set with Serratia Marcescens 58 [8] (inoculum size 10^-2 (100fold dilution of the overnight culture), read-out: MIC), 0.39 µg/mL (≈ 1.02 µM). The LD50 at 168 h was more than 8000 mg/kg in “Acute toxicity in rats” (iv, female, i.v., read-out: LD50 i.v.); approximately 8000 mg/kg in “Acute toxicity in rats” (iv, male, i.v., read-out: LD50 i.v.); more than 8000 mg/kg in “Acute toxicity in rats” (sc, female, s.c., read-out: LD50 s.c.); more than 8000 mg/kg in “Acute toxicity in rats” (sc, male, s.c., read-out: LD50 s.c.).

Broadly, the ED50 is the midpoint of the dose-response relation. Read a low ED50 as an effect at a small dose. The term MIC denotes the smallest concentration in the dilution series that meets the test's criterion for growth inhibition. For orientation: LD50 means the dose expected to kill half of the subjects tested.
